Experimental data taken from US20010039246A1, “Composition and method for early bloom thinning of fruit trees and controlling cracking of fruits” (priority 2000, published 2001).
Where two headings read alike, the source gives them in different places.

Key:
‘Gala’ apple trees = assay: Thinning and phytotoxicity of lipid, copper and their mixture (Example 5); assay type: in vivo; details: for Russet / Leaf damage / Thinning: ‘Gala’ apples, aqueous cupric sulfate, sprayed at 5% FB; for Russet: fruit russet at harvest
Method: Emulsion was prepared with glyceride type of lipids as in Example 2 and diluted to 2% active ingredients. Cupric sulfate was added to the diluted emulsion to give mixtures containing 0, 50, 100, and 150 g metallic copper per 100 L, respectively. Aqueous solutions containing 0, 50, 100, and 150 g metallic copper per 100 L were also prepared seperately. Emulsion and copper mixtures or cupric sulfate solutions were sprayed on 12 year-old ‘Gala’ apple trees at 5% FB. Each treatment consisted of 4 trees (replications) in a row (oriented from south to north) and 2 shoots (one from the east and another from the west side of the canopy) were selected from each of the 4 trees for evaluation. Fruit set was measured 2 months after FB and leaf damage were evaluated 1, 2, and 3 weeks after application. Fruit russet was assessed at harvest and return of bloom was evaluated the following season.

‘Delicious’ apple = assay: Lipids and surfactants for bloom thinning, fruit set and leaf bud damage (Example 4); assay type: in vivo; details: applied at 5% full bloom
‘Bing’ cherry trees = assay: as above; assay type: in vivo; details: sprayed at 5% full bloom
From the text: (§1) […] Each treatment (plot) consisted of 4 trees, which received standard commercial management both before and after oil application.

‘Feng Huang’ peach = assay: as above; assay type: in vivo; details: applied at 5% full bloom
From the text: as §1

[1] = test system: ‘Feng Huang’ peaches, ‘Delicious’ apples, and ‘Bing’ cherries; assay: Lipids and surfactants for bloom thinning, all cultivars of Example 4; assay type: in vivo; details: for damage to leaf buds: surfactant alone at 0.6% or 1%; for thinning effect: surfactant alone at the application rate (0.2%, 0.6%, 1%), sprayed at 5% full bloom
From the text: Fruit trees of ‘Feng Huang’ peaches, ‘Delicious’ apples, and ‘Bing’ cherries all were sprayed at 5% full bloom. Each treatment (plot) consisted of 4 trees, which received standard commercial management both before and after oil application.

peach trees = details: cited from earlier work

| Molecule | Fruit set (‘Delicious’ apple; surfactant solution 0.2%) [%] | leaf bud damage (‘Delicious’ apple; surfactant solution 0.2%) [%] | Fruit set (‘Delicious’ apple; surfactant solution 0.6%) [%] | leaf bud damage (‘Delicious’ apple; surfactant solution 0.6%) [%] | Fruit set (‘Delicious’ apple; surfactant solution 1.0%) [%] | leaf bud damage (‘Delicious’ apple; surfactant solution 1.0%) [%] | Fruit set (‘Bing’ cherry trees; surfactant solution 0.2%) [%] | leaf bud damage (‘Bing’ cherry trees; surfactant solution 0.2%) [%] | Fruit set (‘Bing’ cherry trees; surfactant solution 0.6%) [%] | leaf bud damage (‘Bing’ cherry trees; surfactant solution 0.6%) [%] | Fruit set (‘Bing’ cherry trees; surfactant solution 1.0%) [%] | leaf bud damage (‘Bing’ cherry trees; surfactant solution 1.0%) [%] | Fruit set (‘Feng Huang’ peach; surfactant solution 0.2%) [%] | leaf bud damage (‘Feng Huang’ peach; surfactant solution 0.2%) [%] | Fruit set (‘Feng Huang’ peach; surfactant solution 0.6%) [%] | leaf bud damage (‘Feng Huang’ peach; surfactant solution 0.6%) [%] | Fruit set (‘Feng Huang’ peach; surfactant solution 1.0%) [%] | leaf bud damage (‘Feng Huang’ peach; surfactant solution 1.0%) [%] | damage to leaf buds [1] | thinning effect [1] | other results |
| --- | --- | --- | --- | --- | --- | --- | --- | --- | --- | --- | --- | --- | --- | --- | --- | --- | --- | --- | --- | --- | --- |
| O=S(=O)([O-])[O-].[Cu+2] [Cupric sulfate] |  |  |  |  |  |  |  |  |  |  |  |  |  |  |  |  |  |  |  |  | thinning and phytotoxicity (‘Gala’ apple trees; ‘Gala’ apple, 50, 100, 150 g metallic copper per 100 L): both thinning and phytotoxicity in a concentration dependent manner; Russet (‘Gala’ apple trees; 50 g metallic copper/100 L): 0%; Russet (‘Gala’ apple trees; 100 g metallic copper/100 L): 35%; Russet (‘Gala’ apple trees; 150 g metallic copper/100 L): 64%; Leaf damage (‘Gala’ apple trees; 50 g metallic copper/100 L): 0%; Thinning (‘Gala’ apple trees; 50 g metallic copper/100 L): 87%; Leaf damage (‘Gala’ apple trees; 100 g metallic copper/100 L): 9%; Thinning (‘Gala’ apple trees; 100 g metallic copper/100 L): 64%; Leaf damage (‘Gala’ apple trees; 150 g metallic copper/100 L): 24%; Thinning (‘Gala’ apple trees; 150 g metallic copper/100 L): 43% |
| TWEEN 60 | 58 | 0 | 65 | 7 | 61 | 13 | 96 | 0 | 92 | 8 | 87 | 17 | 46 | 0 | 42 | 5 | 38 | 18 | caused some damage to leaf buds | not effective in thinning |  |
| N,N-bis 2-[omega (hydroxypolyoxyethylene/polyoxypropylene)ethyl alkylamine] [Armothin] |  |  |  |  |  |  |  |  |  |  |  |  |  |  |  |  |  |  |  |  | thinning effect (peach trees; 1%): not effective thinners |
| alkaryl polyoxyethylene alcohols |  |  |  |  |  |  |  |  |  |  |  |  |  |  |  |  |  |  |  |  | thinning effect (peach trees; 2%): not effective thinners |
| TRITON X-100 | 62 | 0 | 64 | 8 | 69 | 15 | 94 | 0 | 83 | 10 | 90 | 18 | 41 | 0 | 42 | 6 | 38 | 20 | caused some damage to leaf buds | not effective in thinning |  |
